The text below walks through data of paper PMC10016038, “Enhanced Endosomal Signaling and Desensitization of GLP-1R vs GIPR in Pancreatic Beta Cells” (Endocrinology, 2023).

For experiment [1], the system named is SNAP-tagged human GIPR. Kind of experiment: Confocal microscopy of co-internalization with FITC agonist, SNAP-GIPR. Type of experiment: cell-based. The source says:
(§1) Figure 1. Beta cell GLP-1R vs GIPR trafficking patterns. […] (B) Rates of GLP-1R vs GIPR internalization (k values) derived from (A) by one-phase association (with Y0 = 0) of baseline-deleted DERET data; n = 5. (C) GLP-1R vs GIPR internalization dose response curves measured by high-content microscopy assay (HCA) in the same cells as above. […] (F) Quantification of surface GLP-1R vs GIPR levels in WT mouse islets using fluorescent agonist uptake data from (E); data corrected for binding affinity differences between both agonists; n = 4. (G) GLP-1R vs GIPR recycling dose response curves measured by high-content microscopy assay (HCA) in cells from (C); n = 5. […] Nuclei (DAPI), blue. Data are mean ± SEM, compared by paired or unpaired t tests, or two-way ANOVA with Sidak's post hoc test; *P < .05, **P < .01, ***P < .001; size bars: 10 µm.
(§2) Finally, using alternative fluorescent conjugates labeled with TMR, the amount of TMR-labeled agonist intracellular accumulation during the first 5 minutes of stimulation for each receptor correlated with the previously shown receptor internalization results in INS-1 832/3 SNAP-GLP-1R/SNAP-GIPR cell lines (Supplemental Fig. 3A and 3B) ([32]).

In experiment [2] the test system is SNAP-tagged human GIPR. Kind of experiment: TMR agonist intracellular accumulation, INS-1 832/3 SNAP-GIPR. Format: cell-based. The following applies: 5 minutes poststimulation. As for the experimental part: as §2
For experiment [3], the system named is endogenous GIPR in mouse islets. Kind of experiment: Confocal imaging of TMR agonist in mouse primary islets, GIPR. Format: cell-based. As for the experimental part:
(§3) Nondiabetic mice of both sexes were used for islet isolation. Briefly, pancreata were infused via the common bile duct with RPMI-1640 medium containing 1 mg/mL collagenase from Clostridium histolyticum (Nordmark Biochemicals), dissected, and incubated in a water bath at 37 °C for 10 minutes. Islets were subsequently washed and purified using a Histopaque gradient (Histopaque-1119, 11191, Sigma-Aldrich, and Histopaque-1083, 10831, Sigma-Aldrich). Isolated islets were allowed to recover overnight at 37 °C in 5% CO2 in RPMI-1640 supplemented with 10% FBS and 1% penicillin/streptomycin. All procedures were carried out in accordance with the regulations of the UK Home Office Animals (Scientific Procedures) Act and the Imperial College London guidelines for animal care. Animal protocols were approved by the Home Office Animals in Science Regulation Unit (ASRU) under Project License number PP7151519 to Dr. A. Martinez-Sanchez.
as §1

Experiment [4] deals with endogenous GLP-1R in mouse islets. Nature of the experiment: Confocal imaging of TMR agonist in mouse primary islets, GLP-1R. Type of experiment: cell-based. The following applies: 100 nM GLP-1-TMR; 15 minutes. As for the experimental part: as §3
Figure 1. […] (C) GLP-1R vs GIPR internalization dose response curves measured by high-content microscopy assay (HCA) in the same cells as above. […] (F) Quantification of surface GLP-1R vs GIPR levels in WT mouse islets using fluorescent agonist uptake data from (E); data corrected for binding affinity differences between both agonists; n = 4. (G) GLP-1R vs GIPR recycling dose response curves measured by high-content microscopy assay (HCA) in cells from (C); n = 5. […]

Experiment [5] relates to GLP-1R. The following applies: tirzepatide; cited from earlier work. The source says:
In summary, we have described here significant differences in the trafficking and spatiotemporal signaling propensities of the 2 incretin receptors following their stimulation with native agonists in beta cells. While the GLP-1R is a rapidly internalizing receptor with increased propensity for β-arrestin 2 recruitment, endosomal localization and activity, and lysosomal degradation, the GIPR is associated with reduced coupling to G proteins and β-arrestin 2, as well as reduced internalization and endosomal activity, increased recycling, and an overall increase in beta cell signaling despite hig ...

Experiment [6] has as its system T2D patients. Conditions: dual GLP-1R/GIPR targeting peptides; cited from earlier work. The source says:
Incretin receptors, comprising the glucagon-like peptide-1 receptor (GLP-1R) and the glucose-dependent insulinotropic polypeptide receptor (GIPR), are key components of the glucoregulatory system due to their capacity to prevent postprandial hyperglycemia by amplifying insulin secretion from pancreatic beta cells in a glucose-dependent manner ([1]). Since their discovery and cloning in the 1990s ([2-4]), both receptors have been recognized for their glucose lowering potential. However, while the GLP-1R has successfully been exploited for the treatment of type 2 diabetes (T2D), with several pha ...

Ends that are not written are not given here.

Regarding “GIP-FITC: fluorescein isothiocyanate (FITC) conjugate of GIP(1-42) (YAEGTFISDYSIAMDKIHQQDFVNWLLAQKGKKNDWKHNITQ; also: FITC conjugate, position not given here)”, in experiment [1] (30 min, 100 nM GIP-FITC), the SNAP-GIPR endocytosis result is reported as “only partial SNAP-GIPR endocytosis”. Besides, in experiment [1] (after 30 minutes of agonist stimulation), the “Intracellular GIP-FITC signal accumulation” value was “some intracellular GIP-FITC signal accumulation”.
For “GIP-TMR: tetramethylrhodamine (TMR) conjugate of GIP(1-42) (YAEGTFISDYSIAMDKIHQQDFVNWLLAQKGKKNDWKHNITQ; also: TMR conjugate, position not given here)”, in experiment [2], the “Intracellular accumulation of TMR-labeled agonist” value is “negligible”. In addition, the “GIP-TMR signal in islets at 100 nM” value in experiment [3] (100 nM, not shown) is recorded as “virtually undetectable”. The “Localization of TMR agonist in WT mouse primary islets” value in experiment [3] (1 µM GIP-TMR, 15 minutes) is recorded as “could be detected at the plasma membrane”. In experiment [3] (dispersed mouse islet cells), the “GIP-TMR uptake compared with GLP-1-TMR, dispersed mouse islet cells” value is given as “markedly reduced”. The “TMR agonist signal in WT islets, GIP-TMR vs GLP-1-TMR” value in experiment [3] (quantified in Fig. 1F, corrected for binding affinity differences, n = 4) is “significantly lower”. In experiment [3] (same concentration of GIP-TMR as WT (1 µM), specificity control), the “GIP-TMR signal at the plasma membrane, Gipr-/- (KO) islets” value is “absent”.
On to “GLP-1-TMR: tetramethylrhodamine (TMR) conjugate of GLP-1(7-36)NH2 (HAEGTFTSDVSSYLEGQAAKEFIAWLVKGR-NH2; also: TMR conjugate, position not given here)”, for which the “Localization of TMR agonist in WT mouse primary islets” value in experiment [4] was “predominantly localized in punctate structures reminiscent of endosomes”.
With tirzepatide, in experiment [5], the “Internalization and β-arrestin 2 recruitment at the GLP-1R” value is “reduced internalization and β-arrestin 2 recruitment at the GLP-1R”. Moreover, in experiment [6], the “Efficacy compared with approved GLP-1R agonist monotherapies” value was “enhanced efficacy”.
